Measurements published in US20260265238A1, “COMPOUNDS AND PHARMACEUTICAL COMPOSITIONS THAT DEGRADE SWI/SNF-RELATED MATRIX-ASSOCIATED ACTIN-DEPENDENT REGULATOR OF CHROMATIN SUBFAMILY A” (Plexium, Inc., priority 2023, published 2026).

Key:
[1] = molecular target: T1, SMARCA4-HiBiT HeLa cells (protein which is expressed from the SMARCA4 gene) (Homo sapiens, UniProt P51532); assay: SMARCA4 degradation assay (HiBiT-fusion HeLa cell line, 24 h, luminescence); type: cell-based
T1 construct: protein which is expressed from the SMARCA2 and SMARCA4 genes; host or cells: HeLa (SMARCA4-HiBiT engineered line)
Summary of the method: (§1)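 HiBiT-fusion HeLa lines, 8,000 cells/well, overnight attachment; cpd 10-pt series (typically 10 μM–300 pM), 24 h, 37° C. Lysis with LgBiT + HiBiT substrate, 10 min shaking at RT, luminescence read. DC50 from dose-response fit; % degradation also scored at 1 μM.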

[2] = molecular target: T2, SMARCA2-HiBiT HeLa cells (protein which is expressed from the SMARCA2 gene) (Homo sapiens, UniProt P51531); assay: SMARCA2 degradation assay (HiBiT-fusion HeLa cell line, 24 h, luminescence); type: cell-based
T2 construct: protein which is expressed from the SMARCA2 and SMARCA4 genes; host or cells: HeLa (SMARCA2-HiBiT engineered line)
Summary of the method: as §1

T1 sequence (P51532 whole entry, the tested form may be a part): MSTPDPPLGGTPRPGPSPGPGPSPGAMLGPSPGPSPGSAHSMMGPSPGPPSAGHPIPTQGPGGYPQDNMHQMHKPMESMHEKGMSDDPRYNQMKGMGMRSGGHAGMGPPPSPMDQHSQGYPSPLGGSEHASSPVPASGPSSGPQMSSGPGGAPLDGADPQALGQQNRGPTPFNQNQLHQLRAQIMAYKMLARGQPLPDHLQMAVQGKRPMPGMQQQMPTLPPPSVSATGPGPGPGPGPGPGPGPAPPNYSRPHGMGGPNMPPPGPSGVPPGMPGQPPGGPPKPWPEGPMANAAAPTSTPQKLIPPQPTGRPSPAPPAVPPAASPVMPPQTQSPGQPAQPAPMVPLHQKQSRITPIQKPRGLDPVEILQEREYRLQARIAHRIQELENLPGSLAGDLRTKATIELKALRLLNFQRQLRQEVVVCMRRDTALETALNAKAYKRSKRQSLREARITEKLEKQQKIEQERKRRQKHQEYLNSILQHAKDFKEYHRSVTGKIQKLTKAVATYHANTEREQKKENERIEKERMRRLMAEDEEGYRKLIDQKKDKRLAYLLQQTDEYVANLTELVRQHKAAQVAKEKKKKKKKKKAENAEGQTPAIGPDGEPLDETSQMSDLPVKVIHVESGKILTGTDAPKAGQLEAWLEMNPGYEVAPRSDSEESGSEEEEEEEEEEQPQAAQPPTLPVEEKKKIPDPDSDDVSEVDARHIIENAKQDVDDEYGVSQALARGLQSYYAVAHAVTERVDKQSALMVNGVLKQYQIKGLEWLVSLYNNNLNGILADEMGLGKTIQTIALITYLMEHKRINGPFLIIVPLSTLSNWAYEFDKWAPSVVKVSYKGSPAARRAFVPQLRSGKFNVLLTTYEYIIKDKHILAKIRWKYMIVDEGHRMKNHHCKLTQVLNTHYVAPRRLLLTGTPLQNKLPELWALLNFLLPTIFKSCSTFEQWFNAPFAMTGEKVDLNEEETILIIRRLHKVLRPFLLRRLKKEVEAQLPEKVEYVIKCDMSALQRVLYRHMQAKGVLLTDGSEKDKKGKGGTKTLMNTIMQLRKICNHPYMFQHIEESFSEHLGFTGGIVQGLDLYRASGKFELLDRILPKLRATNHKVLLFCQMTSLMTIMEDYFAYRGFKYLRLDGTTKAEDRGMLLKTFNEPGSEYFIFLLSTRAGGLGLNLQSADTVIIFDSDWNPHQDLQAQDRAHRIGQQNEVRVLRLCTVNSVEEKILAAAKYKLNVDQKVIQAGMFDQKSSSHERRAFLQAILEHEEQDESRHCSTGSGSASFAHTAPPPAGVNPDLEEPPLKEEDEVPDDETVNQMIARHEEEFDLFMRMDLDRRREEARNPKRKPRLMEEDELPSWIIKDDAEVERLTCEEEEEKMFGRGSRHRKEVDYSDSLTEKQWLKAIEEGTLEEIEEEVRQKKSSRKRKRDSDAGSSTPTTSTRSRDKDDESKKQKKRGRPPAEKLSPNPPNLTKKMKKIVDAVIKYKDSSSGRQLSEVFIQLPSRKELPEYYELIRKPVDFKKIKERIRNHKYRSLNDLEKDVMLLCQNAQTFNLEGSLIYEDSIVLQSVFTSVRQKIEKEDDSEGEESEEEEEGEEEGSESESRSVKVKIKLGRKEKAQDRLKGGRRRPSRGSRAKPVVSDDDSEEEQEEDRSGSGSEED
T2 sequence (P51531 whole entry, the tested form may be a part): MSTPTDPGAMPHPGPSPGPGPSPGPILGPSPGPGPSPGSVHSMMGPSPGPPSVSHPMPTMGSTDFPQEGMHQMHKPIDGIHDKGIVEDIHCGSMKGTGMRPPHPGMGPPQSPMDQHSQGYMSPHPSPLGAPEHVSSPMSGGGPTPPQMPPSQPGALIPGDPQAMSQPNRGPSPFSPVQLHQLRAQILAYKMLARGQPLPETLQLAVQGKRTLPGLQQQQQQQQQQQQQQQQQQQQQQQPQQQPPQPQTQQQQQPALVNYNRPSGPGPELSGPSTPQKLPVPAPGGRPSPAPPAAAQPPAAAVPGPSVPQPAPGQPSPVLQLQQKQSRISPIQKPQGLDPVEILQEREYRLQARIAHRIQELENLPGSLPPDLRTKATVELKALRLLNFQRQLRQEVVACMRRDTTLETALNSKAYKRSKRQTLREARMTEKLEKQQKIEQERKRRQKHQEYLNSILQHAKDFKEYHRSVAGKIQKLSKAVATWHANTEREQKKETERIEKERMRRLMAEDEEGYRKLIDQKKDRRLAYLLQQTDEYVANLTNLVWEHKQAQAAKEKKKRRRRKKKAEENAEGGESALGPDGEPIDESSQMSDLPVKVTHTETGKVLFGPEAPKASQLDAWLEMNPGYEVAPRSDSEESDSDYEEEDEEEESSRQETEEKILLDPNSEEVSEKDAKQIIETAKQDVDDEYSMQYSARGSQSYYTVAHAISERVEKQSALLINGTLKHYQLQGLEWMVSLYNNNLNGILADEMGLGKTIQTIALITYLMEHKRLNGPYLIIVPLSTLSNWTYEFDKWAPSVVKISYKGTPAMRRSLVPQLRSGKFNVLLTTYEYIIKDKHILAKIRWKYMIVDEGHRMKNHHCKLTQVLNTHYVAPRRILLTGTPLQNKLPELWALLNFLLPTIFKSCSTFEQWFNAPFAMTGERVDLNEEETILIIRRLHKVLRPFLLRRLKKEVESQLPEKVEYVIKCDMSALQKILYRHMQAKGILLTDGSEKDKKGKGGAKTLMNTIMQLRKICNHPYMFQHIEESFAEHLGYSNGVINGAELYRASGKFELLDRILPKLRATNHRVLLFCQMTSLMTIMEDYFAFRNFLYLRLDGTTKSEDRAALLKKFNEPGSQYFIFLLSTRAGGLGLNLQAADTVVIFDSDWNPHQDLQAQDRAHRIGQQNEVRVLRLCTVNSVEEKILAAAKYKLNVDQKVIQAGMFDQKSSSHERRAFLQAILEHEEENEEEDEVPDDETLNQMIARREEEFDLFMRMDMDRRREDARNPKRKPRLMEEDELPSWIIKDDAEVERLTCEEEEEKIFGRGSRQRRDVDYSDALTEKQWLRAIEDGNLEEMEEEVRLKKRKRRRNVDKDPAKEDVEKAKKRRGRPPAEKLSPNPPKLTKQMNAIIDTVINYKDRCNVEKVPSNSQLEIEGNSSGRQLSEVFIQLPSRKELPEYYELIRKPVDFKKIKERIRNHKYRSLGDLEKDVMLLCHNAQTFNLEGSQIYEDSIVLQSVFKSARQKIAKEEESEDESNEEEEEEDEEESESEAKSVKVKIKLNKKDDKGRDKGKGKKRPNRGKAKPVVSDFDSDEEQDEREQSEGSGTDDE

| Compound | DC50 [1] | inhibition at 1 µM ([1]; @ 1 μM) | DC50 [2] | SMARCA2 % Degradation @ 1 μM ([2]; @ 1 μM) | SMARCA2 % Degradation @ 1 μM ([2]; 1 μM) | inhibition at 1 µM ([1]; 1 μM) |
| --- | --- | --- | --- | --- | --- | --- |
| Nc1nnc(-c2ccccc2O)cc1N1CCN(c2ccnc(C#CCNC(=O)c3cn4ccncc4n3)n2)CC1 [Compound P-60, N-(3-(4-(4-(3-amino-6-(2-hydroxyphenyl)pyridazin-4-yl)piperazin-1-yl)pyrimidin-2-yl)prop-2-yn-1-yl)imidazo[1,2-a]pyrazinc-2-carboxamidc] | 0.05 to 0.5 µM | 30 to 70% | 0.05 to 0.5 µM | ++ (++=30-70%) | – | – |
| C[C@@H]1CCN(c2cc(-c3ccccc3O)nnc2N)CCN1c1ccnc(C#CCN2[C@H](C)COC[C@@H]2C)c1 [Compound P-422, 0-{5-[(R)-4-(2-{3-[(3R,5S)-3,5-dimethyl-4-morpholiny1]-1-propynyl}-4-pyridyl)-5-methyl-1,4-diazepan-1-yl]-6-amino-3-pyridazinyl}phenol] | < 0.05 µM | – | 0.05 to 0.5 µM | – | + (+=<30%) | – |
| CCOc1cc(N2CCCN(c3cc(-c4ccccc4O)nnc3N)CC2)nc(C#CCNC(=O)c2cc3ncccn3n2)n1 [Compound P-124, N-(3-(4-(4-(3-amino-6-(2-hydroxyphenyl)pyridazin-4-yl)-1,4-diazepan-1-yl)-6-ethoxypyrimidin-2-yl)prop-2-yn-1-yl)pyrazolo[1,5-a]pyrimidine-2-carboxamide] | 0.05 to 0.5 µM | > 70% | 0.05 to 0.5 µM | ++ (++=30-70%) | – | – |
| CN(C)CC#Cc1nccc(N2C[C@@H]3CN(c4cc(-c5ccccc5O)nnc4N)C[C@@H]3C2)n1 [Compound P-181, o-{5-[(1R,5S)-7-{2-[3-(dimethylamino)-1-propynyl]-4-pyrimidinyl}-3,7-diazabicyclo[3.3.0]oct-3-yl]-6-amino-3-pyridazinyl} phenol] | < 0.05 µM | 30 to 70% | 0.05 to 0.5 µM | ++ (++=30-70%) | – | – |
| CN1C(=O)NC2(CCN(CC#Cc3nccc(N4CCCN(c5cc(-c6ccccc6O)nnc5N)CC4)n3)CC2)C1=O [Compound P-362, 8-[3-(4-{4-[3-amino-6-(o-hydroxyphenyl)-4-pyridazinyl]-1,4-diazepan-1-yl}-2-pyrimidinyl)-2-propynyl]-3-methyl-1,3,8-triaza-2,4-spiro [4.5]decanedione] | 0.5 to 5 µM | 30 to 70% | 0.05 to 0.5 µM | ++ (++=30-70%) | – | – |
| C[C@@H]1CCN(c2cc(-c3ccccc3O)nnc2N)CCN1c1ccnc(C#CCN2CCCCC2)c1 [Compound P-425, 0-(5-{(R)-5-methyl-4-[2-(3-piperidino-1-propynyl)-4-pyridyl]-1,4-diazepan-1-yl}-6-amino-3-pyridazinyl)phenol] | < 0.05 µM | – | < 0.05 µM | – | ++ (++=30-70%) | 30 to 70% |
| CC(C)(C)OC(=O)NCC#Cc1nccc(N2CC3CC(Oc4cc(-c5ccccc5O)nnc4N)CC3C2)n1 (stereo not drawn) [Compound P-221, 4-(3-{2-[3-(tert-butoxycarbonylamino)-1-propynyl]-4-pyrimidinyl}-3-azabicyclo[3.3.0]oct-7-yloxy)-6-(o-hydroxyphenyl)-3-pyridazinamine] | 0.05 to 0.5 µM | > 70% | 0.05 to 0.5 µM | +++ (+++=>70%) | – | – |
| CC1(F)CCN(CC#Cc2nccc(N3CC4CCC(C3)N4c3cc(-c4ccccc4O)nnc3N)n2)C1 (stereo not drawn) [Compound P-193, o-[6-amino-5-(3-{2-[3-(3-fluoro-3-methyl-1-pyrrolidinyl)-1-propynyl]-4-pyrimidinyl}-3,8-diazabicyclo[3.2.1]oct-8-yl)-3-pyridazinyl]phenol] | 0.05 to 0.5 µM | < 30% | 0.05 to 0.5 µM | ++ (++=30-70%) | – | – |
| Nc1nnc(-c2ccccc2O)cc1N1CCN(c2ccnc(C#CCNC(=O)c3ccn(C4CC4)n3)n2)CC1 [Compound P-11, N-[3-(4-{4-[3-amino-6-(2-hydroxyphenyl)pyridazin-4-yl]piperazin-1-yl}pyrimidin-2-yl)prop-2-yn-1-y1]-1-cyclopropyl-1H-pyrazole-3-carboxamide] | < 0.05 µM | 30 to 70% | < 0.05 µM | ++ (++=30-70%) | – | – |
| Nc1nnc(-c2ccccc2O)cc1N1CCCN(c2ccnc(C#CCCNC(=O)c3cc4ncccn4n3)n2)CC1 [Compound P-23, N-(4-(4-(4-(3-amino-6-(2-hydroxyphenyl)pyridazin-4-yl)-1,4-diazepan-1-yl)pyrimidin-2-yl)but-3-yn-1-yl)pyrazolo[1,5-a]pyrimidine-2-carboxamide] | 0.05 to 0.5 µM | 30 to 70% | 0.05 to 0.5 µM | ++ (++=30-70%) | – | – |
| Nc1nnc(-c2ccccc2O)cc1N1CCN(c2ccnc(C#CCNC(=O)c3cc4ccccc4[nH]3)n2)CC1 [Compound P-73, N-(3-(4-(4-(3-amino-6-(2-hydroxyphenyl)pyridazin-4-yl)piperazin-1-yl)pyrimidin-2-yl)prop-2-yn-1-yl)-1H-indole-2-carboxamide] | 0.05 to 0.5 µM | 30 to 70% | 0.05 to 0.5 µM | ++ (++=30-70%) | – | – |
| Cn1ccc(OCC#Cc2nccc(N3CCCN(c4cc(-c5ccccc5O)nnc4N)CC3)n2)n1 [Compound P-108, 2-(6-amino-5-(4-(2-(3-((1-methyl-1H-pyrazol-3-yl)oxy)prop-1-yn-1-yl)pyrimidin-4-yl)-1,4-diazepan-1-yl)pyridazin-3-yl)phenol] | 0.05 to 0.5 µM | > 70% | 0.05 to 0.5 µM | +++ (+++=>70%) | – | – |
| C[C@@H]1CCN(c2cc(-c3ccccc3O)nnc2N)CCN1c1ccnc(C#CCN(C)C)c1 [Compound P-427, 0-{5-[(R)-4-{2-[3-(dimethylamino)-1-propynyl]-4-pyridyl}-5-methyl-1,4-diazepan-1-yl]-6-amino-3-pyridazinyl}phenol] | < 0.05 µM | – | < 0.05 µM | – | +++ (+++=>70%) | 30 to 70% |
| Nc1nnc(-c2ccccc2O)cc1N1CC2CN(c3ccnc(C#CCNC(=O)c4cc5ncccn5n4)n3)C2C1 (stereo not drawn) [Compound P-43, N-(3-(4-(3-(3-amino-6-(2-hydroxyphenyl)pyridazin-4-yl)-3,6-diazabicyclo[3.2.0]heptan-6-yl)pyrimidin-2-yl)prop-2-yn-1-yl)pyrazolo[1,5-a]pyrimidine-2-carboxamide] | 0.05 to 0.5 µM | 30 to 70% | 0.5 to 5 µM | ++ (++=30-70%) | – | – |
| C[C@@H]1CCN(c2cc(-c3ccccc3O)nnc2N)CCN1c1ccc(C(F)(F)F)c(C#CCN(C)C)n1 [Compound P-395, 0-{5-[(R)-4-{6-[3-(dimethylamino)-1-propynyl]-5-(trifluoromcthyl)-2-pyridyl}-5-methyl-1,4-diazepan-1-yl]-6-amino-3-pyridazinyl}phenol] | > 5 µM | – | 0.5 to 5 µM | – | – | – |
| C[C@@H]1CCN(c2cnnc(-c3ccccc3O)c2)CCN1c1ccc(C#N)c(C#CCNC(=O)c2cc3ncccn3n2)n1 [Compound P-410, N-[3-(6-{(R)-4-[6-(0-hydroxyphenyl)-4-pyridazinyl]-7-methyl-1,4-diazepan-1-yl}-3-cyano-2-pyridyl)-2-propynyl]-1,4,7a-triaza-2-indenecarboxamide] | > 5 µM | – | > 5 µM | – | – | – |
| N#CCNCC#Cc1nccc(N2CCCN(c3cc(-c4ccccc4O)nnc3N)CC2)n1 [Compound P-255, [3-(4-{4-[3-amino-6-(o-hydroxyphenyl)-4-pyridaziny1]-1,4-diazepan-1-yl}-2-pyrimidinyl)-2-propynylamino]acetonitrile] | 0.05 to 0.5 µM | 30 to 70% | 0.05 to 0.5 µM | ++ (++=30-70%) | – | – |
| Nc1nnc(-c2ccccc2O)cc1N1CCN(c2ccnc(C#CCNC(=O)c3cc4n(n3)CCCO4)n2)CC1 [Compound P-57, N-(3-(4-(4-(3-amino-6-(2-hydroxyphenyl)pyridazin-4-yl)piperazin-1-y1)pyrimidin-2-yl)prop-2-yn-1-yl)-6,7-dihydro-5H-pyrazolo[5,1-b][1,3]oxazine-2-carboxamide] | < 0.05 µM | 30 to 70% | 0.05 to 0.5 µM | ++ (++=30-70%) | – | – |
| Nc1nnc(-c2ccccc2O)cc1N1CCCN(c2ccnc(C#CCN3CCC(Cc4ccccc4)CC3)n2)CC1 [Compound P-337, 0-[6-amino-5-(4-{2-[3-(4-benzyl-1-piperidyl)-1-propynyl]-4-pyrimidinyl}-1,4-diazepan-1-yl)-3-pyridazinyl]phenol] | 0.05 to 0.5 µM | > 70% | 0.05 to 0.5 µM | +++ (+++=>70%) | – | – |
| Nc1nnc(-c2ccccc2O)cc1N1CC2CC(C1)N2c1ccnc(C#CCn2cncn2)n1 [Compound P-205, o-[6-amino-5-(6-{2-[3-(1H-1,2,4-triazol-1-yl)-1-propynyl]-4-pyrimidinyl}-3,6-diazabicyclo[3.1.1]hept-3-yl)-3-pyridazinyl]phenol] | 0.5 to 5 µM | 30 to 70% | > 5 µM | – | – | – |
| CC(C#Cc1cc(N2CCN(c3cc(-c4ccccc4O)nnc3N)CC[C@H]2C)ccn1)N(C)C (stereo partly drawn) [Compound P-399, 0-{5-[(R)-4-{2-[3-(dimcthylamino)-1-butynyl]-4-pyridyl}-5-methyl-1,4-diazepan-1-y1]-6-amino-3-pyridazinyl}phenol] | < 0.05 µM | – | < 0.05 µM | – | ++ (++=30-70%) | 30 to 70% |
